The text below walks through data of ChEMBL document CHEMBL3259655, “Anthranilic acid derivatives as novel ligands for farnesoid X receptor (FXR)” (Bioorg Med Chem, 2014).

Values after ≈ are worked out from the molar mass of the structure shown. Active and inactive are the calls of the source. The rule behind the calls is not given here.

By solubility is commonly meant the concentration that dissolves in the medium under given conditions. Read a low solubility as little dissolved substance. Usually EC50 stands for the concentration that produces a half-maximal response.

Data set [1] relates to HepG2. In words: Cytotoxicity against human HepG2 cells at 10 uM after 48 hrs by WST-1 assay relative to control. It is filed as cell-based. The note with it: hepg2, 48 h.
Data set [2] has as its target T1, Prostaglandin G/H synthase 1 (Ovis aries) (UniProt P05979).
T1 sequence (whole entry): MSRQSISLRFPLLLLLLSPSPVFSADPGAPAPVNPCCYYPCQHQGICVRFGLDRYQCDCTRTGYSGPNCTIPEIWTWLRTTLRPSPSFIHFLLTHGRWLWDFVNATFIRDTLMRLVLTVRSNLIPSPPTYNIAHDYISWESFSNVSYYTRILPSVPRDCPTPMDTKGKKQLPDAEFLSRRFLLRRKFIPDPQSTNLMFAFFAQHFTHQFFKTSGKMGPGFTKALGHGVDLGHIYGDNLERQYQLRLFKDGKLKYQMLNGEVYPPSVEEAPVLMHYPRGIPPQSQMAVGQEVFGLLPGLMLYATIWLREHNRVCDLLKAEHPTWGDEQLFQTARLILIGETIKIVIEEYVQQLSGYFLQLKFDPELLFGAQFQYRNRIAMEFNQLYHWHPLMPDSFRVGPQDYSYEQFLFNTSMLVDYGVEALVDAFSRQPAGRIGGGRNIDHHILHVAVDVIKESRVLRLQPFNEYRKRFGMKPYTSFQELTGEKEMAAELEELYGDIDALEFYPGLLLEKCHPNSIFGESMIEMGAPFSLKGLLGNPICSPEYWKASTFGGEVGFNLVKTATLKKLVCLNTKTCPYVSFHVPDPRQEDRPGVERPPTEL
In words: Inhibition of ovine COX1 using arachidonic acid as substrate up to 10 uM preincubated for 5 mins followed by substrate addition measured after 5 mins.

The subject of the next data set is HeLa. The data set can be described thus: Cytotoxicity against human HeLa cells at 60 uM after 48 hrs by WST-1 assay. It is filed as cell-based.
Data set [3] deals with T2, Prostaglandin G/H synthase 2 (Homo sapiens) (UniProt P35354).
T2 sequence (whole entry): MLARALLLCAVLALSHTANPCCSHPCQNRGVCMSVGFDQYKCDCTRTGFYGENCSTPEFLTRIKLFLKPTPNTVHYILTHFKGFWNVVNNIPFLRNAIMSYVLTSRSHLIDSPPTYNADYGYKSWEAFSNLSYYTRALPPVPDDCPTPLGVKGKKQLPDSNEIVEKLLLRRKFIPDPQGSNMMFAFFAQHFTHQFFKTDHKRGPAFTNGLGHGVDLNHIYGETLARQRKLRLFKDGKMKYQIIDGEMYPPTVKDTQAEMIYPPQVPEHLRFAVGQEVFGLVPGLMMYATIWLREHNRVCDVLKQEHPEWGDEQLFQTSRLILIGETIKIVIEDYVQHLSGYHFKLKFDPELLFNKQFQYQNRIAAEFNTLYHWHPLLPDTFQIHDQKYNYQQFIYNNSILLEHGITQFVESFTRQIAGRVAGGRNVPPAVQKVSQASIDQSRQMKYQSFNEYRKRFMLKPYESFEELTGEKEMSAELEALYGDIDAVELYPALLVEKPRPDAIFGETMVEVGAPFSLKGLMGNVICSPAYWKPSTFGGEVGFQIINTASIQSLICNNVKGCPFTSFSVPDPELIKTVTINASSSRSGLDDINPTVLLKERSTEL
In words: Inhibition of recombinant human COX2 using arachidonic acid as substrate up to 10 uM preincubated for 5 mins followed by substrate addition measured after 5 mins.

Data set [4] has as its target T3, Prostaglandin E synthase (Homo sapiens) (UniProt O14684).
T3 sequence (whole entry): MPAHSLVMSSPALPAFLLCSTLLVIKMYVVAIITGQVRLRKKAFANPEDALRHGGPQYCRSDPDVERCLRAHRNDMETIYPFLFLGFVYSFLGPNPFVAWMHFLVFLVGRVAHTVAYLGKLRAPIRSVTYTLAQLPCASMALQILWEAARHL
In words: Inhibition of mPGES1 mediated PGE2 production in IL-1beta stimulated human A549 cells at 10 uM by RP-HPLC analysis. In kind it is cell-based.

Data set [5] concerns HepG2. In words: Cytotoxicity against human HepG2 cells at 30 uM after 48 hrs by WST-1 assay relative to control. The note with it: hepg2, 48 h. It is filed as cell-based.
The subject of data set [6] is HepG2. In words: Cytotoxicity against human HepG2 cells at 100 uM after 48 hrs by WST-1 assay relative to control. It is filed as cell-based. The note with it: hepg2, 48 h. Background: Tetrazolium dyes change colour on reduction, which living cells bring about.
Data set [7] in a line: Metabolic stability in Sprague-Dawley rat liver microsomes assessed as compound remaining at 10 uM after 15 mins by HPLC analysis. In kind it is ADME. The note with it: read-out: Stability. Background: Microsomes from liver hold many membrane-bound enzymes, among them those of drug oxidation.
Data set [8] can be described thus: Aqueous solubility of the compound. It is filed as physicochemical. The following applies: water.
In another data set the target is T4, Bile acid receptor (Homo sapiens, UniProt Q96RI1).
T4 sequence (Q96RI1 whole entry): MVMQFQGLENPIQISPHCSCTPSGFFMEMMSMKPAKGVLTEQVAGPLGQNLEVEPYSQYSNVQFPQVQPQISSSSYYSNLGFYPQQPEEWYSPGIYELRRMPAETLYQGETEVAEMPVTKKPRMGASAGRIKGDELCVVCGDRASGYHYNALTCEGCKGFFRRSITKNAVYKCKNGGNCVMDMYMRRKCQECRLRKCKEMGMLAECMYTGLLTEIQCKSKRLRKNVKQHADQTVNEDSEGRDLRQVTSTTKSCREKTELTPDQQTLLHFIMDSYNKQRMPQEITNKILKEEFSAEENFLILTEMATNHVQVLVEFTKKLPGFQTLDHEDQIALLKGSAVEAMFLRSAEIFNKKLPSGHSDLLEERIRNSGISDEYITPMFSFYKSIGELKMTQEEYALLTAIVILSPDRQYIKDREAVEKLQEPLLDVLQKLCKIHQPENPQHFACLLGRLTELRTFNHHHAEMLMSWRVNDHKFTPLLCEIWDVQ
In words: Agonist activity at human FXR expressed in human HeLa cells assessed as transactivation after 24 hrs by luciferase reporter gene assay. In kind it is cell-based.

The target in data set [9] is T5, Bile acid receptor (Homo sapiens) (UniProt Q96RI1).
T5 sequence (whole entry): T4 sequence (Q96RI1 whole entry)
In words: Agonist activity at human FXR expressed in human HeLa cells assessed as transactivation after 24 hrs by luciferase reporter gene assay relative to GW4064. In kind it is cell-based.

Data set [10] concerns HepG2. In words: Cytotoxicity against human HepG2 cells at 60 uM after 48 hrs by WST-1 assay relative to control. In kind it is cell-based. The following applies: hepg2, 48 h.
For data set [11], the target named is T6, Polyunsaturated fatty acid 5-lipoxygenase (Homo sapiens) (UniProt P09917).
T6 sequence (whole entry): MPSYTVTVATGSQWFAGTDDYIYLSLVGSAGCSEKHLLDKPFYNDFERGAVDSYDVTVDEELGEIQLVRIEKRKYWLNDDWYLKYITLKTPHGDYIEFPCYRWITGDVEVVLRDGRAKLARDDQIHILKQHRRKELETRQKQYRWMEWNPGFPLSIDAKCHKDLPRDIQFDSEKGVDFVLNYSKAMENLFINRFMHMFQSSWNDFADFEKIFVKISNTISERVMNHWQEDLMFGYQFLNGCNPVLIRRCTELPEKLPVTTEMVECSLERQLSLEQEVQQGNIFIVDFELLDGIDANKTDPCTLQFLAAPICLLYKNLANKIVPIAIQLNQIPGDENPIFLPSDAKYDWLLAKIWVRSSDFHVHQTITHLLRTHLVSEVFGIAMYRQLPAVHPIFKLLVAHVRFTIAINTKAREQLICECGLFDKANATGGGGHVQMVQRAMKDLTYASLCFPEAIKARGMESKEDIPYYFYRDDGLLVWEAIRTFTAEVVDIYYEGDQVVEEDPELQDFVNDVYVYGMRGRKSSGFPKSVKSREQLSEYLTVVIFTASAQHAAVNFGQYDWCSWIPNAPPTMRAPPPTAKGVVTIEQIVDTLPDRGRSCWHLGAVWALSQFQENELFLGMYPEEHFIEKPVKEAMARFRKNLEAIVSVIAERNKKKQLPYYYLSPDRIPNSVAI
The data set can be described thus: Inhibition of 5-LO in human polymorphonuclear leukocytes using arachidonic acid as substrate at 10 uM preincubated for 15 mins followed by substrate addition measured after 10 mins by HPLC analysis in presence of Ca2+-ionophore A23187. In kind it is cell-based.

Data set [12] is described as follows: Metabolic stability in Sprague-Dawley rat liver microsomes assessed as compound remaining at 10 uM after 60 mins by HPLC analysis. The following applies: read-out: Stability. It is filed as ADME.
Data set [13] is described as follows: Metabolic stability in Sprague-Dawley rat liver microsomes assessed as compound remaining at 10 uM after 30 mins by HPLC analysis. In kind it is ADME. The following applies: read-out: Stability.

For `O=C(O)CCCNC(=O)c1ccccc1NC(=O)c1ccc2ccccc2c1`, the Activity is recorded as 92% in the data set on HepG2 [1]; “Non-toxic” in the data set with HeLa; 90% in the data set with HepG2 [5]; 84% in the data set on HepG2 [6]; 81% with HepG2 [10]. In addition, the inhibition entry in data set [2], in [3], in data set [4] and in data set [11] was “inactive” each time. For the same molecule, the remaining at 0.25 h, 10 µM in data set [7] worked out at 93%. The molecule further showed a solubility in data set [8] of 45 µg/mL (≈ 120 µM). Moreover, the EC50 on Bile acid receptor was 8.55 µM. Also, in data set [9], the max activation stood at 37%. Further, the remaining at 1 h, 10 µM in [12] is 92%. The remaining at 0.5 h, 10 µM in data set [13] was determined as 93%.
